Laboratory results taken from ChEMBL document CHEMBL1201862, “PubChem BioAssay data set” (2004).
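Tested at 5 concentrations; 48 h exposure; 96-well plates; endpoints linearly interpolated, else capped at highest concentration. GI50 marks 50% less growth.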 Calls of active or inactive are those of the source. Rule as the data show it: active = GI50 up to about 1.1 µM and inactive = higher.

Columns and labels:
Test in all cases: NCI-60 cell line screen, 48 h
[1] = tested on: HOP-18
[2] = tested on: SF-295
[3] = tested on: NCI/ADR-RES
[4] = tested on: OVCAR-5
[5] = tested on: RPMI-8226
[6] = tested on: RXF 393
[7] = tested on: MCF7
[8] = tested on: SF-539
[9] = tested on: HT-29
[10] = tested on: Malme-3M
[11] = tested on: SNB-78
[12] = tested on: HOP-92
[13] = tested on: SK-MEL-28
[14] = tested on: MDA-N
[15] = tested on: DU-145
[16] = tested on: T47D
[17] = tested on: BT-549
[18] = tested on: MDA-MB-231
[19] = tested on: PC-3
[20] = tested on: Hs-578T

Measured: GI50

CCCSc1nc(COC(=O)NC)c(COC(=O)NC)n1C
inactive: [1] > 100 µM | [2] > 100 µM | [3] > 100 µM | [4] > 100 µM | [5] 42 µM | [6] 37.4 µM | [7] 47.6 µM | [8] > 100 µM | [9] > 100 µM | [10] > 100 µM | [11] > 80.5 µM | [12] > 71 µM

C/C=C/C(C#N)O[Si](C)(C)C (stereo not drawn)
inactive: [1] > 100 µM | [2] > 100 µM | [4] > 100 µM | [6] > 100 µM | [8] > 100 µM | [9] > 100 µM | [13] > 100 µM | [10] > 100 µM | [11] > 100 µM | [12] > 100 µM

CC1(C)C2CCC3(OCCO3)C1C1OC12 (stereo not drawn)
inactive: [1] 45.6 µM | [2] > 100 µM | [4] > 100 µM | [5] > 100 µM | [6] > 100 µM | [8] > 100 µM | [9] > 100 µM | [13] > 100 µM | [10] > 100 µM | [11] > 100 µM | [12] > 100 µM

C=C(Nc1ccc(OC)cc1OC)C(=O)Cc1cccc[n+]1[O-]
inactive: [1] > 100 µM | [2] > 100 µM | [4] > 100 µM | [5] > 100 µM | [6] > 100 µM | [8] > 100 µM | [9] > 100 µM | [13] > 100 µM | [10] > 100 µM | [11] > 100 µM | [12] > 100 µM

CCOC(=O)C1C(=O)CN2CCc3c([nH]c4ccccc34)C12C(=O)OCC (stereo not drawn)
inactive: [1] 72.8 µM | [2] > 100 µM | [4] > 100 µM | [6] > 100 µM | [8] > 100 µM | [9] > 100 µM | [13] > 100 µM | [10] > 100 µM | [11] > 100 µM | [12] > 100 µM

Cc1ccc(NC(=O)/C(=N\Nc2ccc([N+](=O)[O-])cc2[N+](=O)[O-])C2C(=O)NC(=O)NC2=O)cc1
inactive: [1] > 100 µM | [2] 46.1 µM | [4] > 100 µM | [5] 70 µM | [6] 48.9 µM | [8] 17.9 µM | [9] 49.5 µM | [13] > 100 µM | [10] > 100 µM | [11] > 100 µM | [12] > 100 µM

Cc1ccc(-c2nnc3s/c(=C\c4ccc(N(C)C)cc4)c(=O)n23)cc1
inactive: [1] > 100 µM | [2] > 100 µM | [4] > 100 µM | [5] > 100 µM | [6] > 100 µM | [8] > 100 µM | [13] > 100 µM | [10] > 100 µM | [11] > 100 µM | [12] > 100 µM

O=S(=O)(N/N=C/c1c(Cl)cccc1Cl)c1ccccc1
inactive: [1] > 100 µM | [2] > 100 µM | [4] > 100 µM | [5] > 100 µM | [6] 55.5 µM | [8] > 100 µM | [9] > 100 µM | [13] > 100 µM | [10] > 100 µM | [11] > 100 µM | [12] > 100 µM

CC#C[C@@]1(O)CCCC[C@@H]1O
inactive: [1] > 100 µM | [2] > 100 µM | [5] > 100 µM | [6] > 100 µM | [8] > 100 µM | [9] > 100 µM | [13] > 100 µM | [10] > 100 µM | [11] > 100 µM | [12] > 100 µM

O=C(c1cccs1)N(C(=S)N1CCN(c2ccccc2)CC1)c1ccccc1
inactive: [1] > 100 µM | [2] > 100 µM | [4] > 100 µM | [5] > 100 µM | [6] > 100 µM | [8] > 100 µM | [9] > 100 µM | [13] > 100 µM | [10] > 100 µM | [11] > 100 µM | [12] > 100 µM

CC1(C)OCC[C@@H]1[Si](C)(C)C
inactive: [1] 23.1 µM | [2] 90.8 µM | [4] > 100 µM | [5] 29.6 µM | [6] 16.5 µM | [8] > 100 µM | [9] > 100 µM | [13] 84.7 µM | [10] > 100 µM | [11] > 100 µM | [12] 55.8 µM

CN(/N=C/c1cccc2cccnc12)c1ccc([N+](=O)[O-])cc1[N+](=O)[O-]
inactive: [14] > 100 µM | [15] 65.5 µM | [1] > 100 µM | [16] 23.1 µM | [2] 13 µM | [3] 39.8 µM | [4] 70.1 µM | [5] > 90.2 µM | [17] 21.3 µM | [18] 23.1 µM | [6] 17.1 µM | [7] 40.8 µM | [8] 11.3 µM | [19] 55 µM | [9] > 100 µM | [13] > 88.1 µM | [10] 18.2 µM | [20] 9.71 µM | [11] 18.4 µM | [12] 14.8 µM

C/C(=C/c1c(C)[nH]c(=O)[nH]c1=O)C(=O)O
inactive: [1] > 1370 µM | [2] > 1370 µM | [3] > 1370 µM | [4] > 1260 µM | [5] > 1370 µM | [6] > 1370 µM | [7] > 1370 µM | [8] > 1370 µM | [9] > 1370 µM | [13] > 1370 µM | [10] > 1370 µM | [11] > 1370 µM

Cc1cccc(C)c1NC(=O)C(=O)C1C(=O)N(c2ccccc2)N=C1N (stereo not drawn)
inactive: [1] > 100 µM | [2] > 100 µM | [4] > 100 µM | [5] > 100 µM | [6] > 100 µM | [8] > 100 µM | [9] > 100 µM | [13] > 100 µM | [10] > 100 µM | [11] > 100 µM | [12] > 100 µM

C[C@@H]1O[C@]2(O)[C@@H]3CCCN3S(=O)(=O)CCN2C1=O
inactive: [1] > 100 µM | [2] > 100 µM | [4] > 100 µM | [5] > 100 µM | [6] > 100 µM | [8] > 100 µM | [9] > 100 µM | [13] > 100 µM | [10] > 100 µM | [11] > 100 µM | [12] > 100 µM

COc1ccc(NC(=O)C(=O)NO)c(OC)c1
inactive: [1] 17.3 µM | [2] 14 µM | [4] 19.5 µM | [5] 15.1 µM | [6] 15.6 µM | [8] 20.9 µM | [9] 20.7 µM | [13] 17.5 µM | [10] 23.8 µM | [11] 19.8 µM | [12] 20.6 µM
